Earlier results, collected in patent US11427609B2, “Glycosidic derivatives of treprostinil” (AOP ORPHAN IP AG, priority 2017, dated 2022).

bioavailability (Remodulin, subcutaneous or intravenous infusion): ~100% | biological half-life (human organism): 4.4-4.6 hours | excretion in feces (in vivo): 13% | urinary excretion as identified metabolites (in vivo): 64% | urinary excretion as unmetabolized treprostinil (in vivo): 4% | urinary excretion (total): 79%
SMILES: CCCCC[C@H](O)CC[C@@H]1[C@H]2Cc3cccc(OCC(=O)O)c3C[C@H]2C[C@H]1O [Treprostinil]
